Results on 4 compounds are retold here after ChEMBL document CHEMBL1201862, “PubChem BioAssay data set” (2004).

Among the test systems are 786-0; CCRF-CEM; COLO 205; HCT-116; K562; KM12; M14; MDA-MB-231; MDA-MB-435; NCI-H226; NCI/ADR-RES; OVCAR-5; OVCAR-8; SF-268; SK-MEL-5; SK-OV-3; SNB-75; T47D; A498; SR.
Common to all, as to test: NCI anticancer screen, dose series, 48 h

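Where inhibition never reached the appropriate level, the endpoint shown equals the highest concentration tested. Otherwise, values were interpolated linearly from a five-concentration, 48-hour dose response in 96-well plates. Abbreviation: GI50, concentration required for 50% inhibition of growth.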 Calls of active or inactive are those of the source. No stated cut-off is given here; in the data, active = GI50 up to about 1.1 µM and inactive = higher. Bounds are passed on as bounds.

With `CC(C)(C)OC(=O)N/N=C(/N)c1ccccc1`, the GI50 in the assay with 786-0, in the assay with CCRF-CEM, in the assay with COLO 205, in the assay with HCT-116, in the assay with K562 and in the assay with KM12 was > 100 µM (inactive) each time. For the same compound, the GI50 in the assay with M14, with MDA-MB-231, in the assay with MDA-MB-435, in the assay on NCI-H226, with NCI/ADR-RES and in the assay with OVCAR-5 was > 100 µM (inactive) throughout. Further, the GI50 with OVCAR-8, with SF-268, in the assay on SK-MEL-5, in the assay with SK-OV-3, in the assay with SNB-75 and in the assay on T47D was > 100 µM (inactive) throughout.

Regarding `COc1cc2cc(C(=O)N3CC(CCl)c4ccc([N+](=O)[O-])cc43)[nH]c2c(OC)c1OC` (stereo not given), the GI50 in the assay with 786-0, in the assay on A498, with CCRF-CEM, with COLO 205, in the assay on HCT-116 and with K562 was > 100 µM (inactive) each time. Besides, the GI50 in the assay on KM12, in the assay with M14, with MDA-MB-231, in the assay with MDA-MB-435, in the assay with NCI/ADR-RES and with OVCAR-5 was > 100 µM (inactive) each time. The GI50 in the assay on OVCAR-8, in the assay on SF-268, in the assay on SK-MEL-5, in the assay with SNB-75 and in the assay with T47D was > 100 µM (inactive) each time.

Take `CC[C@@]1(C[C@H]2C[C@@]3(C(=O)OC)c4[nH]c5ccccc5c4CCN3C2=O)COC2(CCCCC2)O1`: the GI50 in the assay with 786-0 was 39.9 µM (inactive); in the assay on COLO 205, 34.4 µM (inactive); in the assay with HCT-116, 30 µM (inactive); in the assay with K562 it was 23.6 µM (inactive); with KM12, 19.9 µM (inactive); in the assay on M14, 37.8 µM (inactive). The GI50 is > 100 µM (inactive) with MDA-MB-231; 31.8 µM (inactive) in the assay on NCI/ADR-RES; 55.8 µM (inactive) with OVCAR-5; 43.3 µM (inactive) in the assay with OVCAR-8; 30.3 µM (inactive) with SF-268; 13.5 µM (inactive) with SK-MEL-5. For the same compound, the GI50 with SK-OV-3 is 69.5 µM (inactive); with SNB-75, 46.8 µM (inactive); with SR, 31.3 µM (inactive); with T47D, 29.3 µM (inactive).

As for `NCC(=O)NC1(c2cc3ccccc3s2)CCCCC1`, the GI50 was 41.4 µM (inactive) with 786-0; 31 µM (inactive) with A498; 22 µM (inactive) in the assay on CCRF-CEM; 17.9 µM (inactive) with COLO 205; 42.7 µM (inactive) with HCT-116; 5.68 µM (inactive) in the assay with K562. Besides, the GI50 in the assay on KM12 was 40.6 µM (inactive); in the assay on M14, 17.6 µM (inactive); with MDA-MB-435, 37.8 µM (inactive); in the assay with NCI-H226, 18.7 µM (inactive); with NCI/ADR-RES, 48.5 µM (inactive); in the assay with OVCAR-5, 40.5 µM (inactive). For the same compound, the GI50 with OVCAR-8 is > 100 µM (inactive); with SF-268 it was 28.4 µM (inactive); with SK-MEL-5, 17.8 µM (inactive); with SK-OV-3, 67.6 µM (inactive); in the assay on SNB-75, 28.3 µM (inactive); in the assay on SR, < 0.01 µM (active). Also, in the assay with T47D, the GI50 was 40 µM (inactive).
